Test results: patent US7655665B2, “Nitromethylene derivatives and their use” (East China University of Science and Technology, priority 2004, dated 2010)

Legend:
Aphis craccivoral = experiment: Insecticidal activity against Aphis craccivoral by immersing (dipping aphids on bean sprout); type: in vivo; details: for mortality (%) (500 ppm) Aphis: immersing (dipped 5 seconds), counted after 24 hours, 23° C.; for mortality at 500 ppm: Aphis, 24 h, read-out: mortality (%) (500 ppm) Aphis
Procedure: (§1) Test on the insecticidal activity of Compound Nos. 1-227
Aphis, which belongs to Homoptera and has a piercing-sucking mouthpart, is a common insect for agricultural plant. Aphis craccivoral was tested by the way of immersing.
Test method: exactly weighed various samples were independently added to N,N-dimethylformamide to form a 10 g/L stock solution. The mixture was diluted with 0.2 mL/L aqueous Triton X-100 solution to a concentration of 500 ug/mL. After stably sucking on bean sprout, the adult aphis without wings together with bean sprout was dipped into 500 ug/mL dilution, taken out after 5 seconds, and the excess dilution was sucked out with bibulous paper and the adult aphis without wings was incubated in clean vessel at a constant temperature of 23° C. Each concentration was repeated for 3 times and the control group contained 0.2 mL/L aqueous Triton X-100 solution. The number of killed aphis was counted after 24 hours to calculate the mortality.

Nilaparvata lugens = experiment: Insecticidal activity against Nilaparvata lugens (planthopper) by spraying; type: in vivo; details: for mortality (%) (500 ppm) Nilaparvata lugens: spraying 2 ml, counted after 24 hours; for mortality at 500 ppm: Nilaparvata lugens, 24 h, read-out: mortality (%) (500 ppm) Nilaparvata lugens
Procedure: as §1
Planthopper, which belongs to Homoptera and has a piercing-sucking mouthpart, is a common insect for agricultural plant. Nilaparvata lugens was tested by the way of spraying.
Test method: the test compound was exactly formulated into a solution having a certain concentration and clean water was used as a blank control. Each process was repeated for 3 tumblers (3 times). 2 ml of solution was sprayed uniformly to each tumbler by a mini manual sprayer. 10 Nilaparvata lugens were introduced to every sink 6 hours before spraying. Three series of experiments were conducted. The number of killed Nilaparvata lugens was counted after 24 hours to calculate the mortality.

CCC(C)OC1CCC([N+](=O)[O-])=C2N(Cc3cnc(Cl)s3)CCN21 (mixture of isomers) [Compound 33]
mortality (%) (500 ppm) Aphis (Aphis craccivoral): 24%
mortality (%) (500 ppm) Nilaparvata lugens (Nilaparvata lugens): 56%

CCCC(C)OC1CCC([N+](=O)[O-])=C2N(Cc3cnc(Cl)s3)CCN21 (mixture of isomers) [Compound 38]
mortality (%) (500 ppm) Aphis (Aphis craccivoral): 35%
mortality (%) (500 ppm) Nilaparvata lugens (Nilaparvata lugens): 67%

CC(C)(C)COC1CCC([N+](=O)[O-])=C2N(Cc3ccc(Cl)nc3)CCN21 (racemic) [Compound 17]
mortality (%) (500 ppm) Aphis (Aphis craccivoral): 100%
mortality (%) (500 ppm) Nilaparvata lugens (Nilaparvata lugens): 100%

O=[N+]([O-])C1=C2N(Cc3ccc(Cl)nc3)CCN2C(OC2CCCCC2)CC1 (racemic) [Compound 18]
mortality (%) (500 ppm) Aphis (Aphis craccivoral): 23%
mortality (%) (500 ppm) Nilaparvata lugens (Nilaparvata lugens): 67%

C=CCOC1CCC([N+](=O)[O-])=C2N(Cc3ccc(Cl)nc3)CCN21 (racemic) [Compound 19]
mortality (%) (500 ppm) Aphis (Aphis craccivoral): 35%
mortality (%) (500 ppm) Nilaparvata lugens (Nilaparvata lugens): 78%

C#CCOC1CCC([N+](=O)[O-])=C2N(Cc3ccc(Cl)nc3)CCN21 (racemic) [Compound 20]
mortality (%) (500 ppm) Aphis (Aphis craccivoral): 39%
mortality (%) (500 ppm) Nilaparvata lugens (Nilaparvata lugens): 56%

COCCOC1CCC([N+](=O)[O-])=C2N(Cc3ccc(Cl)nc3)CCN21 (racemic) [Compound 21]
mortality (%) (500 ppm) Aphis (Aphis craccivoral): 100%
mortality (%) (500 ppm) Nilaparvata lugens (Nilaparvata lugens): 100%

CCOCCOC1CCC([N+](=O)[O-])=C2N(Cc3ccc(Cl)nc3)CCN21 (racemic) [Compound 22]
mortality (%) (500 ppm) Aphis (Aphis craccivoral): 100%
mortality (%) (500 ppm) Nilaparvata lugens (Nilaparvata lugens): 100%

O=[N+]([O-])C1=C2N(Cc3cnc(Cl)s3)CCN2C(O)CC1 (racemic) [Compound 23]
mortality (%) (500 ppm) Aphis (Aphis craccivoral): 87%
mortality (%) (500 ppm) Nilaparvata lugens (Nilaparvata lugens): 100%

COC1CCC([N+](=O)[O-])=C2N(Cc3cnc(Cl)s3)CCN21 (racemic) [Compound 24]
mortality (%) (500 ppm) Aphis (Aphis craccivoral): 100%
mortality (%) (500 ppm) Nilaparvata lugens (Nilaparvata lugens): 100%

CCOC1CCC([N+](=O)[O-])=C2N(Cc3cnc(Cl)s3)CCN21 (racemic) [Compound 25]
mortality (%) (500 ppm) Aphis (Aphis craccivoral): 100%
mortality (%) (500 ppm) Nilaparvata lugens (Nilaparvata lugens): 100%

O=[N+]([O-])C1=C2N(Cc3cnc(Cl)s3)CCN2C(OCCCl)CC1 (racemic) [Compound 26]
mortality (%) (500 ppm) Aphis (Aphis craccivoral): 26%
mortality (%) (500 ppm) Nilaparvata lugens (Nilaparvata lugens): 64%

O=[N+]([O-])C1=C2N(Cc3cnc(Cl)s3)CCN2C(OCC(F)(F)F)CC1 (racemic) [Compound 27]
mortality (%) (500 ppm) Aphis (Aphis craccivoral): 100%
mortality (%) (500 ppm) Nilaparvata lugens (Nilaparvata lugens): 100%

CCCOC1CCC([N+](=O)[O-])=C2N(Cc3cnc(Cl)s3)CCN21 (racemic) [Compound 28]
mortality (%) (500 ppm) Aphis (Aphis craccivoral): 100%
mortality (%) (500 ppm) Nilaparvata lugens (Nilaparvata lugens): 100%

CC(C)OC1CCC([N+](=O)[O-])=C2N(Cc3cnc(Cl)s3)CCN21 (racemic) [Compound 29]
mortality (%) (500 ppm) Aphis (Aphis craccivoral): 100%
mortality (%) (500 ppm) Nilaparvata lugens (Nilaparvata lugens): 100%

O=[N+]([O-])C1=C2N(Cc3cnc(Cl)s3)CCN2C(OC(C(F)(F)F)C(F)(F)F)CC1 (racemic) [Compound 30]
mortality (%) (500 ppm) Aphis (Aphis craccivoral): 58%
mortality (%) (500 ppm) Nilaparvata lugens (Nilaparvata lugens): 98%

CCCCOC1CCC([N+](=O)[O-])=C2N(Cc3cnc(Cl)s3)CCN21 (racemic) [Compound 31]
mortality (%) (500 ppm) Aphis (Aphis craccivoral): 56%
mortality (%) (500 ppm) Nilaparvata lugens (Nilaparvata lugens): 35%

CC(C)COC1CCC([N+](=O)[O-])=C2N(Cc3cnc(Cl)s3)CCN21 (racemic) [Compound 32]
mortality (%) (500 ppm) Aphis (Aphis craccivoral): 37%
mortality (%) (500 ppm) Nilaparvata lugens (Nilaparvata lugens): 23%

CC(C)(C)OC1CCC([N+](=O)[O-])=C2N(Cc3cnc(Cl)s3)CCN21 (racemic) [Compound 34]
mortality (%) (500 ppm) Aphis (Aphis craccivoral): 100%
mortality (%) (500 ppm) Nilaparvata lugens (Nilaparvata lugens): 100%

CC(C)(OC1CCC([N+](=O)[O-])=C2N(Cc3cnc(Cl)s3)CCN21)C(Cl)(Cl)Cl (racemic) [Compound 35]
mortality (%) (500 ppm) Aphis (Aphis craccivoral): 98%
mortality (%) (500 ppm) Nilaparvata lugens (Nilaparvata lugens): 100%

CCCCCOC1CCC([N+](=O)[O-])=C2N(Cc3cnc(Cl)s3)CCN21 (racemic) [Compound 36]
mortality (%) (500 ppm) Aphis (Aphis craccivoral): 34%
mortality (%) (500 ppm) Nilaparvata lugens (Nilaparvata lugens): 57%

CC(C)CCOC1CCC([N+](=O)[O-])=C2N(Cc3cnc(Cl)s3)CCN21 (racemic) [Compound 37]
mortality (%) (500 ppm) Aphis (Aphis craccivoral): 56%
mortality (%) (500 ppm) Nilaparvata lugens (Nilaparvata lugens): 64%

CC(C)(C)COC1CCC([N+](=O)[O-])=C2N(Cc3cnc(Cl)s3)CCN21 (racemic) [Compound 39]
mortality (%) (500 ppm) Aphis (Aphis craccivoral): 24%
mortality (%) (500 ppm) Nilaparvata lugens (Nilaparvata lugens): 35%

O=[N+]([O-])C1=C2N(Cc3cnc(Cl)s3)CCN2C(OC2CCCCC2)CC1 (racemic) [Compound 40]
mortality (%) (500 ppm) Aphis (Aphis craccivoral): 45%
mortality (%) (500 ppm) Nilaparvata lugens (Nilaparvata lugens): 67%

C=CCOC1CCC([N+](=O)[O-])=C2N(Cc3cnc(Cl)s3)CCN21 (racemic) [Compound 41]
mortality (%) (500 ppm) Aphis (Aphis craccivoral): 89%
mortality (%) (500 ppm) Nilaparvata lugens (Nilaparvata lugens): 100%

O=[N+]([O-])C1=C2N(Cc3ccc(Cl)nc3)CCN2C(O)CC1 (stereo not drawn) [Compound 1]
mortality at 500 ppm (Aphis craccivoral): 96%
mortality at 500 ppm (Nilaparvata lugens): 100%

COC1CCC([N+](=O)[O-])=C2N(Cc3ccc(Cl)nc3)CCN21 (stereo not drawn) [Compound 2]
mortality at 500 ppm (Aphis craccivoral): 100%
mortality at 500 ppm (Nilaparvata lugens): 100%

CCOC1CCC([N+](=O)[O-])=C2N(Cc3ccc(Cl)nc3)CCN21 (stereo not drawn) [Compound 3]
mortality at 500 ppm (Aphis craccivoral): 100%
mortality at 500 ppm (Nilaparvata lugens): 100%

C#CCOC1CCC([N+](=O)[O-])=C2N(Cc3cnc(Cl)s3)CCN21 (stereo not drawn) [Compound 42]
mortality (%) (500 ppm) Aphis (Aphis craccivoral): 45%
mortality (%) (500 ppm) Nilaparvata lugens (Nilaparvata lugens): 100%

COCCOC1CCC([N+](=O)[O-])=C2N(Cc3cnc(Cl)s3)CCN21 (stereo not drawn) [Compound 43]
mortality (%) (500 ppm) Aphis (Aphis craccivoral): 100%
mortality (%) (500 ppm) Nilaparvata lugens (Nilaparvata lugens): 100%

CCOCCOC1CCC([N+](=O)[O-])=C2N(Cc3cnc(Cl)s3)CCN21 (stereo not drawn) [Compound 44]
mortality (%) (500 ppm) Aphis (Aphis craccivoral): 67%
mortality (%) (500 ppm) Nilaparvata lugens (Nilaparvata lugens): 100%

O=[N+]([O-])C1=C2N(CC3CCOC3)CCN2C(O)CC1 (stereo not drawn) [Compound 45]
mortality (%) (500 ppm) Aphis (Aphis craccivoral): 56%
mortality (%) (500 ppm) Nilaparvata lugens (Nilaparvata lugens): 89%

COC1CCC([N+](=O)[O-])=C2N(CC3CCOC3)CCN21 (stereo not drawn) [Compound 46]
mortality (%) (500 ppm) Aphis (Aphis craccivoral): 100%
mortality (%) (500 ppm) Nilaparvata lugens (Nilaparvata lugens): 100%

CCOC1CCC([N+](=O)[O-])=C2N(CC3CCOC3)CCN21 (stereo not drawn) [Compound 47]
mortality (%) (500 ppm) Aphis (Aphis craccivoral): 45%
mortality (%) (500 ppm) Nilaparvata lugens (Nilaparvata lugens): 100%

O=[N+]([O-])C1=C2N(CC3CCOC3)CCN2C(OCCCl)CC1 (stereo not drawn) [Compound 48]
mortality (%) (500 ppm) Aphis (Aphis craccivoral): 3%
mortality (%) (500 ppm) Nilaparvata lugens (Nilaparvata lugens): 0%

O=[N+]([O-])C1=C2N(CC3CCOC3)CCN2C(OCC(F)(F)F)CC1 (stereo not drawn) [Compound 49]
mortality (%) (500 ppm) Aphis (Aphis craccivoral): 45%
mortality (%) (500 ppm) Nilaparvata lugens (Nilaparvata lugens): 32%

CCCOC1CCC([N+](=O)[O-])=C2N(CC3CCOC3)CCN21 (stereo not drawn) [Compound 50]
mortality (%) (500 ppm) Aphis (Aphis craccivoral): 100%
mortality (%) (500 ppm) Nilaparvata lugens (Nilaparvata lugens): 100%

CC(C)OC1CCC([N+](=O)[O-])=C2N(CC3CCOC3)CCN21 (stereo not drawn) [Compound 51]
mortality (%) (500 ppm) Aphis (Aphis craccivoral): 34%
mortality (%) (500 ppm) Nilaparvata lugens (Nilaparvata lugens): 23%

CCCCOC1CCC([N+](=O)[O-])=C2N(CC3CCOC3)CCN21 (stereo not drawn) [Compound 53]
mortality (%) (500 ppm) Aphis (Aphis craccivoral): 9%
mortality (%) (500 ppm) Nilaparvata lugens (Nilaparvata lugens): 12%

CC(C)COC1CCC([N+](=O)[O-])=C2N(CC3CCOC3)CCN21 (stereo not drawn) [Compound 54]
mortality (%) (500 ppm) Aphis (Aphis craccivoral): 23%
mortality (%) (500 ppm) Nilaparvata lugens (Nilaparvata lugens): 34%

CCC(C)OC1CCC([N+](=O)[O-])=C2N(CC3CCOC3)CCN21 (stereo not drawn) [Compound 55]
mortality (%) (500 ppm) Aphis (Aphis craccivoral): 45%
mortality (%) (500 ppm) Nilaparvata lugens (Nilaparvata lugens): 12%

CC(C)(C)OC1CCC([N+](=O)[O-])=C2N(CC3CCOC3)CCN21 (stereo not drawn) [Compound 56]
mortality (%) (500 ppm) Aphis (Aphis craccivoral): 100%
mortality (%) (500 ppm) Nilaparvata lugens (Nilaparvata lugens): 100%

CC(C)(OC1CCC([N+](=O)[O-])=C2N(CC3CCOC3)CCN21)C(Cl)(Cl)Cl (stereo not drawn) [Compound 57]
mortality (%) (500 ppm) Aphis (Aphis craccivoral): 34%
mortality (%) (500 ppm) Nilaparvata lugens (Nilaparvata lugens): 38%

CCCCCOC1CCC([N+](=O)[O-])=C2N(CC3CCOC3)CCN21 (stereo not drawn) [Compound 58]
mortality (%) (500 ppm) Aphis (Aphis craccivoral): 34%
mortality (%) (500 ppm) Nilaparvata lugens (Nilaparvata lugens): 23%

CCC(C)OC1CCC([N+](=O)[O-])=C2N(CC3CCOC3)CCN21 (stereo not drawn) [Compound 59]
mortality (%) (500 ppm) Aphis (Aphis craccivoral): 2%
mortality (%) (500 ppm) Nilaparvata lugens (Nilaparvata lugens): 3%

CC(C)CCOC1CCC([N+](=O)[O-])=C2N(CC3CCOC3)CCN21 (stereo not drawn) [Compound 60]
mortality (%) (500 ppm) Aphis (Aphis craccivoral): 3%
mortality (%) (500 ppm) Nilaparvata lugens (Nilaparvata lugens): 5%

CCCC(C)OC1CCC([N+](=O)[O-])=C2N(CC3CCOC3)CCN21 (stereo not drawn) [Compound 61]
mortality (%) (500 ppm) Aphis (Aphis craccivoral): 56%
mortality (%) (500 ppm) Nilaparvata lugens (Nilaparvata lugens): 89%

CC(C)(C)COC1CCC([N+](=O)[O-])=C2N(CC3CCOC3)CCN21 (stereo not drawn) [Compound 62]
mortality (%) (500 ppm) Aphis (Aphis craccivoral): 12%
mortality (%) (500 ppm) Nilaparvata lugens (Nilaparvata lugens): 23%

O=[N+]([O-])C1=C2N(CC3CCOC3)CCN2C(OC2CCCCC2)CC1 (stereo not drawn) [Compound 63]
mortality (%) (500 ppm) Aphis (Aphis craccivoral): 2%
mortality (%) (500 ppm) Nilaparvata lugens (Nilaparvata lugens): 6%

C=CCOC1CCC([N+](=O)[O-])=C2N(CC3CCOC3)CCN21 (stereo not drawn) [Compound 64]
mortality (%) (500 ppm) Aphis (Aphis craccivoral): 37%
mortality (%) (500 ppm) Nilaparvata lugens (Nilaparvata lugens): 46%

C#CCOC1CCC([N+](=O)[O-])=C2N(CC3CCOC3)CCN21 (stereo not drawn) [Compound 65]
mortality (%) (500 ppm) Aphis (Aphis craccivoral): 47%
mortality (%) (500 ppm) Nilaparvata lugens (Nilaparvata lugens): 34%
